ChEMBL document CHEMBL1149596, “QSAR study of selective ligands for the thyroid hormone receptor beta” (Bioorg Med Chem, 2007)
Several values for one entry are separate records, joined by “and”; a condition that tells them apart may be missing. Equal values may be shown once.

Each molecule was assayed against T1, Thyroid hormone receptor beta (Homo sapiens, UniProt P10828).
T1 sequence (P10828 whole entry): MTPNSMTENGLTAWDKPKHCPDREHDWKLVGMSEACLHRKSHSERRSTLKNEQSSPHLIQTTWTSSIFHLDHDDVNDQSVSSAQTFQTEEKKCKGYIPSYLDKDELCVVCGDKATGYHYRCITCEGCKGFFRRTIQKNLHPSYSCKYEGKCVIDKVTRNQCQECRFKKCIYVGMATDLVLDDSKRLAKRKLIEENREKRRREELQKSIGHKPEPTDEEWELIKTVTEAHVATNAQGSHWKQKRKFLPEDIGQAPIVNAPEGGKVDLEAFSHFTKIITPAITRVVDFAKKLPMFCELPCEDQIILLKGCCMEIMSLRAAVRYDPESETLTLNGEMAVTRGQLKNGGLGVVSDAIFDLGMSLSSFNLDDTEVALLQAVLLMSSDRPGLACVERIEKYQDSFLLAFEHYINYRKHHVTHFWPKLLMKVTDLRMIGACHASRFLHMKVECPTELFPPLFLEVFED

IC50 | SMILES
0.0562 nM | O=c1cnn(-c2cc(Cl)c(Oc3ccc(O)c(S(=O)(=O)N4CCCCC4)c3)c(Cl)c2)c(=O)[nH]1
75.9 nM | Cc1cc(-n2ncc(=O)[nH]c2=O)cc(Cl)c1Oc1ccc(O)c(S(=O)(=O)N2CCOCC2)c1
0.871 nM | O=c1cnn(-c2cc(Cl)c(Oc3ccc(O)c(S(=O)(=O)N4C5CCC4CC4(C5)OCCO4)c3)c(Cl)c2)c(=O)[nH]1
37.2 nM | O=C(O)Cc1cc(Br)c(Oc2ccc(O)c(C(=O)NCC(c3ccccc3)c3ccccc3)c2)c(Br)c1
1.02 nM | CC1(C)C2CCC1(C)[C@H](NC(=O)c1cc(Oc3c(Cl)cc(-n4ncc(=O)[nH]c4=O)cc3Cl)ccc1O)C2 (some centres not stated)
4.79 nM | COc1ccc(CCNC(=O)c2cc(Oc3c(Br)cc(CC(=O)O)cc3Br)ccc2O)cc1
8.51 nM | COc1cccc(CCNC(=O)c2cc(Oc3c(Br)cc(CC(=O)O)cc3Br)ccc2O)c1
1.29 nM | O=c1cnn(-c2cc(Cl)c(Oc3ccc(O)c(S(=O)(=O)NC4CCCCC4)c3)c(Cl)c2)c(=O)[nH]1
0.468 nM | COc1ccccc1CCNC(=O)c1cc(Oc2c(Br)cc(CC(=O)O)cc2Br)ccc1O
0.166 nM | CC1(C)C2CCC(NC(=O)c3cc(Oc4c(Cl)cc(-n5ncc(=O)[nH]c5=O)cc4Cl)ccc3O)C1C2 (stereo in doubt; 42)

Further lines, the molecule ahead of its results:

SMILES | IC50
O=c1cnn(-c2cc(Cl)c(Oc3ccc(O)c(S(=O)(=O)NC4CCC4)c3)c(Cl)c2)c(=O)[nH]1 | 1.12 nM
O=C(NC1CCC1)c1cc(Oc2c(Cl)cc(-n3ncc(=O)[nH]c3=O)cc2Cl)ccc1O | 1.78 nM
O=C(c1cc(Oc2c(Cl)cc(-n3ncc(=O)[nH]c3=O)cc2Cl)ccc1O)N1CCOCC1 | 2 nM
O=C(c1cc(Oc2c(Cl)cc(-n3ncc(=O)[nH]c3=O)cc2Cl)ccc1O)N1CCCCC1 | 1.74 nM and 5.25 nM
Cc1cc(-n2ncc(=O)[nH]c2=O)cc(Cl)c1Oc1ccc(O)c(S(=O)(=O)N2CCCCC2)c1 | 0.363 nM
O=c1cnn(-c2cc(Cl)c(Oc3ccc(O)c(S(=O)(=O)N4C5CCC4CC4(CCCO4)C5)c3)c(Cl)c2)c(=O)[nH]1 (configuration not stated) | 0.776 nM
O=c1cnn(-c2cc(Cl)c(Oc3ccc(O)c(S(=O)(=O)Nc4ccccc4)c3)c(Cl)c2)c(=O)[nH]1 | 0.282 nM
O=c1cnn(-c2cc(Cl)c(Oc3ccc(O)c(S(=O)(=O)N4CCc5ccccc54)c3)c(Cl)c2)c(=O)[nH]1 | 0.646 nM
Cc1cc(-n2ncc(=O)[nH]c2=O)cc(C)c1Oc1ccc(O)c(S(=O)(=O)N2CCCCC2)c1 | 1.29 nM
O=C(O)Cc1cc(Br)c(Oc2ccc(O)c(C(=O)NC(=O)c3ccccc3)c2)c(Br)c1 | 4.17 nM
O=C(NC1CCCCC1)c1cc(Oc2c(Cl)cc(-n3ncc(=O)[nH]c3=O)cc2Cl)ccc1O | 0.195 nM
CC1(C)C2CCC(NC(=O)c3cc(Oc4c(Cl)cc(-n5ncc(=O)[nH]c5=O)cc4Cl)ccc3O)C1C2 (stereo in doubt; 43) | 0.112 nM
